Structures are written as SMILES. Toxic doses and inconclusive results are not listed. Residues, ends and D or L forms follow the SMILES beside them. *: point of attachment. Cbz = O=C(OCc1ccccc1)*

Experimental findings from PubChem BioAssay AID328 (DTP/NCI, 2004) are described below.

For the test, the system named is BDF1 mice, P388 leukemia ip, median survival T/C. Put plainly: NCI In Vivo Anticancer Drug Screen. Data for tumor model P388 Leukemia (intraperitoneal) in B6D2F1 (BDF1) mice. To be noted: endpoint: median survival time, higher = longer survival. The method in brief: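 Mice carrying the transplantable tumour receive compound or vehicle. Survival is followed in each arm, and the treated measure is divided by the vehicle measure.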

The mark [1] stands for this setting: dose: 100.0 mg/kg/injection, schedule: Q01DX001 (ip), vehicle: saline.
The mark [2] stands for this setting: dose: 100.0 mg/kg/injection, schedule: Q04DX003 (ip), vehicle: saline.
Setting [3] is: dose: 200.0 mg/kg/injection, schedule: Q01DX001 (ip), vehicle: saline.
Where [4] appears, read: dose: 200.0 mg/kg/injection, schedule: Q04DX003 (ip), vehicle: saline.
Where [5] appears, read: dose: 400.0 mg/kg/injection, schedule: Q04DX003 (ip), vehicle: saline.
Setting [6] is: dose: 100.0 mg/kg/injection, schedule: Q01DX009 (ip), vehicle: Klucel (hydroxypropylcellulose) (HPC).
Setting [7] is: dose: 100.0 mg/kg/injection, schedule: Q04DX003 (ip), vehicle: Klucel (hydroxypropylcellulose) (HPC).
Where [8] appears, read: dose: 200.0 mg/kg/injection, schedule: Q04DX003 (ip), vehicle: Klucel (hydroxypropylcellulose) (HPC).
Where [9] appears, read: dose: 400.0 mg/kg/injection, schedule: Q04DX003 (ip), vehicle: Klucel (hydroxypropylcellulose) (HPC).
Where [10] appears, read: dose: 200.0 mg/kg/injection, schedule: Q01DX009 (ip), vehicle: Klucel (hydroxypropylcellulose) (HPC).
Where [11] appears, read: dose: 400.0 mg/kg/injection, schedule: Q01DX009 (ip), vehicle: Klucel (hydroxypropylcellulose) (HPC).
Setting [12] is: dose: 50.0 mg/kg/injection, schedule: Q04DX002 (ip), vehicle: saline with Tween-80.
Setting [13] is: dose: 100.0 mg/kg/injection, schedule: Q04DX002 (ip), vehicle: saline with Tween-80.
[14] abbreviates: dose: 200.0 mg/kg/injection, schedule: Q04DX002 (ip), vehicle: saline with Tween-80.
[15] abbreviates: dose: 100.0 mg/kg/injection, schedule: Q01DX009 (ip), vehicle: saline with Tween-80.
[16] abbreviates: dose: 100.0 mg/kg/injection, schedule: Q04DX003 (ip), vehicle: saline with Tween-80.
Setting [17] is: dose: 200.0 mg/kg/injection, schedule: Q01DX009 (ip), vehicle: saline with Tween-80.
Setting [18] is: dose: 200.0 mg/kg/injection, schedule: Q04DX003 (ip), vehicle: saline with Tween-80.
Setting [19] is: dose: 400.0 mg/kg/injection, schedule: Q01DX009 (ip), vehicle: saline with Tween-80.
Where [20] appears, read: dose: 400.0 mg/kg/injection, schedule: Q04DX003 (ip), vehicle: saline with Tween-80.
Setting [21] is: dose: 100.0 mg/kg/injection, schedule: Q01DX009 (ip), vehicle: saline.
Where [22] appears, read: dose: 200.0 mg/kg/injection, schedule: Q01DX009 (ip), vehicle: saline.
[23] abbreviates: dose: 400.0 mg/kg/injection, schedule: Q01DX009 (ip), vehicle: saline.

`CC(O)(C(=O)O)c1ccccc1` (configuration not stated) (tested in a mixture with another compound): the T/C is 103 % of control under setting [1]; 100 % of control under setting [2]; 107 % of control under setting [3]; 113 % of control under setting [4]; 107 % of control (dose: 400.0 mg/kg/injection, schedule: Q01DX001 (ip), vehicle: saline); 95 % of control under setting [5].

Consider `CCCN1CSC(=S)N(CCC)C1`, for which the T/C is, setting by setting: (dose: 50.0 mg/kg/injection, schedule: Q01DX009 (ip), vehicle: Klucel (hydroxypropylcellulose) (HPC)) 100 % of control; under setting [6], 170 % of control.

With `COC(=O)c1cc(Cl)c(C(=O)OC)cc1Cl`, the T/C runs as follows: under setting [7], 104 % of control; under setting [8], 96 % of control; under setting [9], 100 % of control.

For `CN(CCC(=O)c1cccc2ccccc12)Cc1ccccc1`, the T/C runs as follows: under setting [6], 115 % of control; under setting [10], 100 % of control; under setting [11], 105 % of control.

Turning to `N#Cc1ccc(N)c(CSc2ccccc2)c1`, the T/C reads like this: under setting [12], 93 % of control; under setting [13], 90 % of control; under setting [14], 99 % of control.

With `COc1ccc(CC(Cc2ccc(OC)c(OC)c2)NC=O)cc1OC`, the T/C is, setting by setting: under setting [15], 99 % of control; under setting [16], 101 % of control; under setting [17], 91 % of control; under setting [18], 102 % of control; under setting [19], 87 % of control; under setting [20], 116 % of control.

With `O=[N+]([O-])c1ccccc1N=P(c1ccccc1)(c1ccccc1)c1ccccc1`, the T/C runs as follows: (dose: 50.0 mg/kg/injection, schedule: Q01DX009 (ip), vehicle: DMSO) 109 % of control; (dose: 50.0 mg/kg/injection, schedule: Q04DX003 (ip), vehicle: DMSO) 100 % of control; (dose: 100.0 mg/kg/injection, schedule: Q01DX009 (ip), vehicle: DMSO) 104 % of control; (dose: 100.0 mg/kg/injection, schedule: Q04DX003 (ip), vehicle: DMSO) 104 % of control; (dose: 200.0 mg/kg/injection, schedule: Q04DX003 (ip), vehicle: DMSO) 90 % of control.

Regarding `Cn1cnc2c(SCc3ccccc3)ncnc21`, the T/C by setting is: under setting [15], 109 % of control; under setting [17], 113 % of control; under setting [19], 90 % of control.

Regarding `COc1cc2c(cc1OC)-c1c(C)c3ccc(OC)c(NCc4ccccc4)c3c[n+]1CC2`, the T/C (dose: 1.56 mg/kg/injection, schedule: Q04DX003 (ip), vehicle: other) was 107 % of control; the T/C (dose: 3.13 mg/kg/injection, schedule: Q04DX003 (ip), vehicle: other) was 100 % of control; the T/C (dose: 6.25 mg/kg/injection, schedule: Q04DX003 (ip), vehicle: other) is 90 % of control.

In the case of `CC1(C#N)CCc2c(ccc3ccccc23)C1=O` (configuration not stated), the T/C runs as follows: (dose: 50.0 mg/kg/injection, schedule: Q04DX003 (ip), vehicle: other) 91 % of control; (dose: 100.0 mg/kg/injection, schedule: Q04DX003 (ip), vehicle: other) 95 % of control; (dose: 200.0 mg/kg/injection, schedule: Q04DX003 (ip), vehicle: other) 100 % of control.

`COc1ccc2c(c1C)CCC1(CO)C(C(C)=O)=CCC21` (configuration not stated): the T/C reads like this: under setting [6], 109 % of control; under setting [7], 100 % of control; under setting [10], 95 % of control; under setting [8], 100 % of control; under setting [11], 100 % of control; under setting [9], 100 % of control.

With `Cc1ccc2c(c1)N=C(Nc1ccccc1)N=S2(C)=O` (configuration not stated), the T/C is 123 % of control (dose: 25.0 mg/kg/injection, schedule: Q01DX009 (ip), vehicle: saline with Tween-80) and 160 % of control under setting [15].

Regarding `Cc1c2oc3c(C)ccc(C(=O)NCc4cccnc4)c3nc-2c(C(=O)NCc2cccnc2)c(N)c1=O`, the T/C by setting is: under setting [16], 96 % of control; under setting [18], 96 % of control; under setting [20], 100 % of control.

Consider `CCc1ccc(O)c(C(=O)c2c[nH]c(=O)c(C(N)=O)c2)c1`, for which the T/C under setting [12] was 103 % of control, the T/C under setting [13] was 94 % of control and the T/C under setting [14] is 99 % of control.

For `O=C(c1ccccc1)c1c2ccccc2c(-c2ccccc2)c2ccccc12`, the T/C is 100 % of control under setting [6]; 91 % of control under setting [7]; 100 % of control under setting [10]; 87 % of control under setting [8]; 111 % of control under setting [11]; 95 % of control under setting [9].

Regarding `CCCCCCC(=O)/C=C/c1ccc(OC)cc1`, the T/C (dose: 50.0 mg/kg/injection, schedule: Q01DX009 (ip), vehicle: saline with Tween-80) is 94 % of control; the T/C under setting [15] is 103 % of control; the T/C under setting [17] was 90 % of control.

In the case of `COc1ccc(CN(CCO)C(C)=O)cc1`, the T/C by setting is: under setting [21], 102 % of control; under setting [2], 100 % of control; under setting [22], 109 % of control; under setting [4], 100 % of control; under setting [23], 115 % of control; under setting [5], 95 % of control.

Regarding `CC(NC(=O)OCc1ccccc1)C(=O)NC(CC(=O)O)C(=O)O` (configuration not stated), the T/C was 100 % of control (dose: 25.0 mg/kg/injection, schedule: Q04DX003 (ip), vehicle: saline); 100 % of control (dose: 50.0 mg/kg/injection, schedule: Q04DX003 (ip), vehicle: saline); 110 % of control under setting [2].

For the molecule `OCCNCCNCCO`, the T/C is 100 % of control (dose: 50.0 mg/kg/injection, schedule: Q01DX001 (ip), vehicle: saline); 104 % of control under setting [1]; 104 % of control under setting [3].

For the molecule `S=c1nc(COc2ccccc2Cl)[nH][nH]1`, the T/C is 100 % of control under setting [16], 109 % of control under setting [18] and 104 % of control under setting [20].

Consider `O=C(O)C(Cc1ccccc1)NC(=O)C1CCCN1C(=O)OCc1ccccc1` (stereo not drawn) (Cbz-Pro-Phe-OH; configuration not given here), for which the T/C by setting is: (dose: 50.0 mg/kg/injection, schedule: Q01DX005 (ip), vehicle: saline with Tween-80) 97 % of control; (dose: 100.0 mg/kg/injection, schedule: Q01DX005 (ip), vehicle: saline with Tween-80) 101 % of control; (dose: 200.0 mg/kg/injection, schedule: Q01DX005 (ip), vehicle: saline with Tween-80) 95 % of control.

Regarding `Cc1ccc(S(=O)(=O)c2ccc(S(=O)(=O)c3ccc(C)cc3)c3c2no[n+]3[O-])cc1`, the T/C reads like this: (dose: 15.0 mg/kg/injection, schedule: Q01DX009 (ip), vehicle: saline with Tween-80) 107 % of control; (dose: 30.0 mg/kg/injection, schedule: Q01DX009 (ip), vehicle: saline with Tween-80) 112 % of control; (dose: 60.0 mg/kg/injection, schedule: Q01DX009 (ip), vehicle: saline with Tween-80) 112 % of control.

For the molecule `CCOC(=O)c1c[nH]c2ccc(OC)cc2c1=O`, the T/C is 111 % of control (dose: 25.0 mg/kg/injection, schedule: Q01DX009 (ip), vehicle: saline); 104 % of control (dose: 50.0 mg/kg/injection, schedule: Q01DX009 (ip), vehicle: saline); 117 % of control under setting [21]; 107 % of control under setting [2]; 113 % of control under setting [22]; 98 % of control under setting [4]. In addition, the T/C was 109 % of control under setting [23] and 100 % of control under setting [5].

In the case of `CC([N+](=O)[O-])S(=O)(=O)c1ccc(Cl)cc1` (configuration not stated), the T/C (dose: 50.0 mg/kg/injection, schedule: Q01DX001 (ip), vehicle: saline sonified) was 95 % of control; the T/C (dose: 100.0 mg/kg/injection, schedule: Q01DX001 (ip), vehicle: saline sonified) was 100 % of control; the T/C (dose: 200.0 mg/kg/injection, schedule: Q01DX001 (ip), vehicle: saline sonified) was 100 % of control.
